Common to all, as to assay type: cell-based
Test [1] deals with T1, STAT3 (Homo sapiens, UniProt P40763).
T1 construct: This cell line is a clone created by using CRISPR-Cas9 to fuse HiBiT to the 3′ end of STAT3 in HeLa cells; host or cells: STAT3-HiBiT KI HeLa cell line (CRISPR-Cas9 knock-in clone)
The test is described as follows: HiBiT assay, STAT3 degradation in STAT3-HiBiT KI HeLa cells. The conditions noted are these: 24 h; for DC50: read-out: STAT3 Degradation (HeLa 24 h HiBit) DC50. As for the experimental part: STAT3 degradation may be determined by HiBiT assay. STAT3-HiBiT KI HeLa cell line, which is a clone created by using CRTISPR-Cas9 to fuse HiBiT to the 3′ end of STAT3 in HeLa cells, may be used for this assay. In a typical procedure, cells seeded at certain amounts of cells (e.g., 20000 cells) per well are incubated with serially diluted compounds for certain period of time (e.g., 24 hours) under certain conditions (e.g., at 37° C. with 5% CO2). At the end of treatment, Nano-Glo HiBiT Lytic Detection reagents is added to the wells and luminescence is acquired on TECAN SPARK plate reader. Untreated cells are used as control. Data points are fit with a four-parameter equation to generate a concentration-response curve. IC50 values are calculated using a nonlinear regression analysis of the mean±SD from triplicate.
STAT3-HiBiT KI HeLa cell line was purchased from Promega. This cell line is a clone created by using CRISPR-Cas9 to fuse HiBiT to the 3′ end of STAT3 in HeLa cells. DMEM medium and FBS were purchased from Gibco/Thermo Fisher Scientific. STAT3 degradation was determined based on quantification of luminescent signal using Nano-Glo HiBiT Lytic Detection System. In a typical procedure, cells seeded at 20000 cells per well in 96-well white plates (Corning) were incubated with serially diluted compounds for 24 hours at 37° C. with 5% CO2. At the end of treatment, Nano-Glo HiBiT Lytic Detection reagents was added to the wells and luminescence was acquired on TECAN SPARK plate reader. Untreated cells were used as control. Data points were fit with a four-parameter equation to generate a concentration-response curve. IC50 values were calculated using a nonlinear regression analysis of the mean±SD from triplicate.
Background: With HiBiT, luminescence reflects the tagged protein that the partner subunit can reach.

Test [2] concerns SU-DHL-1 cells. The test is described as follows: CellTiter-Glo 2.0 cell viability assay, SU-DHL-1. The conditions noted are these: Homo sapiens, 96 h, 4 days. As to the method:
(§1) For example, cell viability may be determined by CellTiter-Glo 2.0 Cell Viability Assay. In a typical procedure, cells seeded at certain amounts of cells (e.g., 1000 cells) per well are incubated with serially diluted compounds for certain period (e.g., 4 days) under certain conditions (e.g., at 37° C. with 5% CO2). At the end of treatment, CellTiter-Glo 2.0 is added to the wells and luminescence is acquired on TECAN SPARK plate reader. Untreated cells are used as control, Data points are fit with an equation (e.g., a four-parameter equation) to generate a concentration-response curve. IC50 values are calculated using a nonlinear regression analysis of the mean±SD from triplicate.
(§2) SU-DHL-1 and SUP-M2 cell viability was determined by CellTiter-Glo 2.0 Cell Viability Assay (Promega). SU-DHL-1 cell line was purchased from ATCC (Manassas, VA) and SUP-M2 (ACC-509) was purchased from DSMZ (Germany). RPMI 1640 medium and fetal bovine serum (FBS) were purchased from Gibco/Thermo Fisher Scientific. In a typical procedure, cells seeded at 1000 cells per well in 384-well white plates (Corning) were incubated with serially diluted compounds for 4 days at 37° C. with 5% C02. At the end of treatment, CellTiter-Glo 2.0 was added to the wells and luminescence was acquired on TECAN SPARK plate reader. Untreated cells were used as control. Data points were fit with a four-parameter equation to generate a concentration-response curve. IC50 values were calculated using a nonlinear regression analysis of the mean±SD from triplicate.

Test [3] has as its system SUP-M2 cells. The test is described as follows: CellTiter-Glo 2.0 cell viability assay, SUP-M2. The conditions noted are these: SUP-M2, 96 h, 4 days. As for the experimental part:
as §1, §2
On the technique in general: ATP-based viability assays read luminescence as a measure of living cells.

T1 sequence (P40763 whole entry): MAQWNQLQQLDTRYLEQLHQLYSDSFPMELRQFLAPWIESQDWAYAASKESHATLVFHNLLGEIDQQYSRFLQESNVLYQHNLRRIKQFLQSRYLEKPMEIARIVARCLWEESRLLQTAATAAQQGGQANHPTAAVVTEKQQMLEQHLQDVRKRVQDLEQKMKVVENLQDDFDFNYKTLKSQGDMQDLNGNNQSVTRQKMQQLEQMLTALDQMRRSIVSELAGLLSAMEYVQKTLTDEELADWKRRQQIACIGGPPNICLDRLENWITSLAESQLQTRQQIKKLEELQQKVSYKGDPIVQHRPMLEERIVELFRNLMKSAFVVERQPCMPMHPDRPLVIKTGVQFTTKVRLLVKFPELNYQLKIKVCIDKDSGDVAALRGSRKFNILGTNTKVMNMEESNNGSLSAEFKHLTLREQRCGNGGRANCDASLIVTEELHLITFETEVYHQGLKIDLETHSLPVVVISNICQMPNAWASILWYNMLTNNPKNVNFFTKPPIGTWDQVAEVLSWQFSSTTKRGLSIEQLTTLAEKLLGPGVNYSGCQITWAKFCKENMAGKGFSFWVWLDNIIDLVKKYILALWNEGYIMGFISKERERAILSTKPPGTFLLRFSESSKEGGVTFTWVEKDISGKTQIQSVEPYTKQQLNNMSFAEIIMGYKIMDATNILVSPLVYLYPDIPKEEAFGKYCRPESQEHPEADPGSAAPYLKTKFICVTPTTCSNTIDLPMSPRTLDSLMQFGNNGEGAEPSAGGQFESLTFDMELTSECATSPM

Broadly, the Dmax is the largest share of the target that was removed. A higher Dmax goes with deep degradation. What is called DC50 is the concentration at which degradation of the target reaches its halfway point. As a reminder, the IC50 is the concentration needed to halve the response being measured. Read a low IC50 as inhibition by little substance. For the compound `CC(=O)N1CC[C@H]2CC[C@@H](C(=O)N[C@@H](CCC(N)=O)COc3cccc(CCCc4cn([C@H](C(=O)N5C[C@H](O)C[C@H]5C(=O)N[C@@H](CN5CCOCC5)c5ccc(-c6scnc6C)cc5)C(C)(C)C)nn4)c3Cl)N2C(=O)[C@@H](NC(=O)c2cc3cc(C(=O)P(=O)(O)O)ccc3[nH]2)C1` [Compound 5, (2-(((5S,8S,10aR)-3-acetyl-8-(((S)-5-amino-1-(2-chloro-3-(3-(1-((S)-1-((2S,4R)-4-hydroxy-2-(((R)-1-(4-(4-methylthiazol-5-yl)phenyl)-2-morpholinoethyl)carbamoyl)pyrrolidin-1-yl)-3,3-dimethyl-1-oxobutan-2-yl)-1H-1,2,3-triazol-4-yl)propyl)phenoxy)-5-oxopentan-2-yl)carbamoyl)-6-oxodecahydropyrrolo[1,2-a][1,5]diazocin-5-yl)carbamoyl)-1H-indole-5-carbonyl)phosphonic acid], in test [1], the maximal degradation (Dmax) at 1 µM is over 80% and the DC50 lay in the range of 0.01 to 0.1 µM. The compound further had an IC50 in test [2] of 0.01 to 0.1 µM. For the same compound, the IC50 in test [3] lay within 0.01 to 0.1 µM.
`CC(=O)N1CC[C@H]2CC[C@@H](C(=O)N[C@@H](CCC(N)=O)COc3cccc(CCCc4cn(C[C@H](NC(=O)[C@@H]5C[C@@H](O)CN5C(=O)[C@@H](n5cc(C6CC6)nn5)C(C)(C)C)c5ccc(-c6scnc6C)cc5)nn4)c3Cl)N2C(=O)[C@@H](NC(=O)c2cc3cc(C(=O)P(=O)(O)O)ccc3[nH]2)C1` [Compound 6, (2-(((5S,8S,10aR)-3-acetyl-8-(((S)-5-amino-1-(2-chloro-3-(3-(1-((R)-2-((2S,4R)-1-((S)-2-(4-cyclopropyl-1H-1,2,3-triazol-1-yl)-3,3-dimethylbutanoyl)-4-hydroxypyrrolidine-2-carboxamido)-2-(4-(4-methylthiazol-5-yl)phenyl)ethyl)-1H-1,2,3-triazol-4-yl)propyl)phenoxy)-5-oxopentan-2-yl)carbamoyl)-6-oxodecahydropyrrolo[1,2-a][1,5]diazocin-5-yl)carbamoyl)-1H-indole-5-carbonyl)phosphonic acid]: in test [1], the Dmax at 1 µM was over 80% and the DC50 was under 0.01 µM. Moreover, the IC50 in test [2] lay in the range of 0.01 to 0.1 µM. The IC50 in test [3] fell in the range of 0.01 to 0.1 µM.
For the compound `CC(=O)N1CC[C@H]2CC[C@@H](C(=O)N[C@@H](CCC(N)=O)COc3cccc(CCCCNC(=O)C[C@H](NC(=O)[C@@H]4C[C@@H](O)CN4C(=O)[C@@H](n4cc(C5CC5)nn4)C(C)(C)C)c4ccc(-c5scnc5C)cc4)c3Cl)N2C(=O)[C@@H](NC(=O)c2cc3cc(C(=O)P(=O)(O)O)ccc3[nH]2)C1` [Compound 7, (2-(((5S,8S,10aR)-3-acetyl-8-(((S)-5-amino-1-(2-chloro-3-(4-((S)-3-((2S,4R)-1-((S)-2-(4-cyclopropyl-1H-1,2,3-triazol-1-yl)-3,3-dimethylbutanoyl)-4-hydroxypyrrolidine-2-carboxamido)-3-(4-(4-methylthiazol-5-yl)phenyl)propanamido)butyl)phenoxy)-5-oxopentan-2-yl)carbamoyl)-6-oxodecahydropyrrolo[1,2-a][1,5]diazocin-5-yl)carbamoyl)-1H-indole-5-carbonyl)phosphonic acid], in test [1], the Dmax at 1 µM was over 80% and the 50% degradation concentration (DC50) is under 0.01 µM. In test [2], this compound displayed an IC50 of 0.01 to 0.1 µM. Further, the IC50 in test [3] is under 0.01 µM.
On to `Cc1ncsc1-c1ccc([C@H](C)NC(=O)[C@@H]2C[C@@H](O)CN2C(=O)[C@@H](n2cc(CCC(=O)N3CC[C@H]4CC[C@@H](C(=O)N[C@@H](CCC(N)=O)C(=O)NCc5cccc(Cl)c5)N4C(=O)[C@@H](NC(=O)c4cc5cc(C(=O)P(=O)(O)O)ccc5[nH]4)C3)nn2)C(C)(C)C)cc1` [Compound 8, (2-(((5S,8S,10aR)-8-(((S)-5-amino-1-((3-chlorobenzyl)amino)-1,5-dioxopentan-2-yl)carbamoyl)-3-(3-(1-((S)-1-((2S,4R)-4-hydroxy-2-(((S)-1-(4-(4-methylthiazol-5-yl)phenyl)ethyl)carbamoyl)pyrrolidin-1-yl)-3,3-dimethyl-1-oxobutan-2-yl)-1H-1,2,3-triazol-4-yl)propanoyl)-6-oxodecahydropyrrolo[1,2-a][1,5]diazocin-5-yl)carbamoyl)-1H-indole-5-carbonyl)phosphonic acid], for which, in test [1], the Dmax at 1 µM was over 80% and the DC50 was 0.1 to 1 µM. This compound showed an IC50 in test [2] of 0.1 to 1 µM. In test [3], this compound displayed an IC50 of 0.01 to 0.1 µM.
For `Cc1ncsc1-c1ccc([C@H](C)NC(=O)[C@@H]2C[C@@H](O)CN2C(=O)[C@@H](n2cc(CCCC(=O)N3CC[C@H]4CC[C@@H](C(=O)N[C@@H](CCC(N)=O)C(=O)NCc5cccc(Cl)c5)N4C(=O)[C@@H](NC(=O)c4cc5cc(C(=O)P(=O)(O)O)ccc5[nH]4)C3)nn2)C(C)(C)C)cc1` [Compound 9, (2-(((5S,8S,10aR)-8-(((S)-5-amino-1-((3-chlorobenzyl)amino)-1,5-dioxopentan-2-yl)carbamoyl)-3-(4-(1-((S)-1-((2S,4R)-4-hydroxy-2-(((S)-1-(4-(4-methylthiazol-5-yl)phenyl)ethyl)carbamoyl)pyrrolidin-1-yl)-3,3-dimethyl-1-oxobutan-2-yl)-1H-1,2,3-triazol-4-yl)butanoyl)-6-oxodecahydropyrrolo[1,2-a][1,5]diazocin-5-yl)carbamoyl)-1H-indole-5-carbonyl)phosphonic acid], the Dmax at 1 µM in test [1] is over 80%. For the same compound, the DC50 in test [1] lay within 0.01 to 0.1 µM. For the same compound, the IC50 in test [2] and in test [3] was 0.01 to 0.1 µM throughout.
As to `Cc1ncsc1-c1ccc([C@H](C)NC(=O)[C@@H]2C[C@@H](O)CN2C(=O)[C@@H](n2cc(CCCCC(=O)N3CC[C@H]4CC[C@@H](C(=O)N[C@@H](CCC(N)=O)C(=O)NCc5cccc(Cl)c5)N4C(=O)[C@@H](NC(=O)c4cc5cc(C(=O)P(=O)(O)O)ccc5[nH]4)C3)nn2)C(C)(C)C)cc1` [Compound 10, (2-(((5S,8S,10aR)-8-(((S)-5-amino-1-((3-chlorobenzyl)amino)-1,5-dioxopentan-2-yl)carbamoyl)-3-(5-(1-((S)-1-((2S,4R)-4-hydroxy-2-(((S)-1-(4-(4-methylthiazol-5-yl)phenyl)ethyl)carbamoyl)pyrrolidin-1-yl)-3,3-dimethyl-1-oxobutan-2-yl)-1H-1,2,3-triazol-4-yl)pentanoyl)-6-oxodecahydropyrrolo[1,2-a][1,5]diazocin-5-yl)carbamoyl)-1H-indole-5-carbonyl)phosphonic acid], in test [1], the Dmax at 1 µM is over 80% and the DC50 fell in the range of 0.01 to 0.1 µM. The compound also showed an IC50 in test [2] of 0.01 to 0.1 µM. The IC50 in test [3] was in the range of 0.01 to 0.1 µM.
For `CCS(=O)(=O)c1ccc(CNC(=O)[C@H](CCC(N)=O)NC(=O)[C@@H]2CC[C@@H]3CCN(C(=O)CCCCc4cn([C@H](C(=O)N5C[C@H](O)C[C@H]5C(=O)N[C@@H](C)c5ccc(-c6scnc6C)cc5)C(C)(C)C)nn4)C[C@H](NC(=O)c4cc5cc(C(=O)P(=O)(O)O)ccc5[nH]4)C(=O)N32)cc1` [Compound 11, (2-(((5S,8S,10aR)-8-(((S)-5-amino-1-((4-(ethylsulfonyl)benzyl)amino)-1,5-dioxopentan-2-yl)carbamoyl)-3-(5-(1-((S)-1-((2S,4R)-4-hydroxy-2-(((S)-1-(4-(4-methylthiazol-5-yl)phenyl)ethyl)carbamoyl)pyrrolidin-1-yl)-3,3-dimethyl-1-oxobutan-2-yl)-1H-1,2,3-triazol-4-yl)pentanoyl)-6-oxodecahydropyrrolo[1,2-a][1,5]diazocin-5-yl)carbamoyl)-1H-indole-5-carbonyl)phosphonic acid], in test [1], the Dmax at 1 µM is over 80% and the DC50 was under 0.01 µM. In test [2], this compound returned an IC50 of 0.01 to 0.1 µM. Besides, the IC50 in test [3] was under 0.01 µM.

Values taken from patent US20260226086A1, “COMPOUNDS AND COMPOSITIONS AS STAT3 DEGRADERS AND USES THEREOF” (REGENTS OF THE UNIVERSITY OF MICHIGAN, priority 2023, published 2026).
